The text below walks through data of patent US8895585B2, “Nicotinamide derivative or salt thereof” (FUJIFILM Corporation, priority 2010, dated 2014).

Read-outs that look alike come from different tables or passages of the source.

This assay addresses T1, glutathione S-transferase (GST)-fused full-length human Syk protein (Homo sapiens, UniProt P43405).
T1 construct: (GST)-fused full-length human Syk protein; GST (glutathione S-transferase); purchased Carna Biosciences
The assay can be described thus: Syk enzyme assay. The class given is biochemical. In a few lines:
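Baculovirus-expressed enzyme (1.2 ng) was preincubated with compound in HEPES pH 7.0/MgCl2/DTT buffer, 2 min shaking then 13 min at room temperature. Biotin-EDPDYEWPSA-NH2 (0.4 μM final) and ATP (27 μM final) were added for 40 min at room temperature. EDTA stop, streptavidin-XL/PT66-K TR-FRET at 615/665 nm gave IC50.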

Where [1] appears, read: Syk enzyme assay, Test Example 1, read-out: IC50 of Syk-inhibitory activity.

As a reminder, the IC50 is the concentration needed to halve the response being measured. Take `C[C@H](N)[C@@H](CC1CC1)Nc1nc(Nc2ccc3c(c2)c(F)nn3C)c(C(N)=O)cc1F` [Example 006-439, 6-(((2R,3S)-3-amino-1-cyclopropylbutan-2-yl)amino)-5-fluoro-2-((3-fluoro-1-methyl-1H-indazol-5-yl)amino)nicotinamide]: the half-inhibitory concentration (IC50) under setting [1] was 10 to 50 nM. As to `NC(=O)c1cc(F)c(NCc2cnc[nH]2)nc1Nc1ccc2ncccc2c1` [Example 012-015], under setting [1], the half-maximal inhibitory concentration (IC50) fell in the range of 50 to 100 nM.

Consider `COc1ncc(Nc2nc(NC3CCCCC3N)c(F)cc2C(N)=O)cc1Cl` (centres unmarked) [Example 002-203], for which the half-maximal inhibitory concentration (IC50) under setting [1] lay in the range of 10 to 50 nM. On the same count and under the same terms, with `NC(=O)c1cc(F)c(N[C@@H]2CCCC[C@@H]2N)nc1Nc1ccn2cnnc2c1` [Example 004-212] the figure was 10 to 50 nM; with `Cn1nc(-n2cccn2)c2cc(Nc3nc(N[C@@H]4CCCC[C@@H]4N)c(F)cc3C(N)=O)ccc21` [Example 006-594, 6-(((1R,2S)-2-aminocyclohexyl)amino)-5-fluoro-2-((1-methyl-3-(1H-pyrazol-1-yl)-1H-indazol-5-yl)amino)nicotinamide], under 10 nM. On to `COCCOc1ccc(-c2cncc(Nc3nc(N[C@@H]4CCCC[C@@H]4N)c(F)cc3C(N)=O)c2)cc1` (relative stereo) [Example 004-111, 6-(cis-2-aminocyclohexylamino)-5-fluoro-2-((5-(4-(2-methoxyethoxy)phenyl)pyridin-3-yl)-amino)nicotinamide], for which the IC50 under setting [1] is under 10 nM. On the same count and under the same terms, with `CCC(Nc1nc(Nc2ccc3ncccc3c2)c(C(N)=O)cc1F)[C@@H](N)CC` (stereo partly drawn) [Example 006-150, 6-(((4S)-4-aminohexan-3-yl)amino)-5-fluoro-2-(quinolin-6-ylamino)nicotinamide] the figure was 10 to 50 nM; with `CCCOc1cnc2cc(Nc3nc(N[C@@H]4CCCC[C@@H]4N)c(F)cc3C(N)=O)ccc2n1` (relative stereo) [Example 004-177, 6-(cis-2-aminocyclohexylamino)-5-fluoro-2-((2-propoxyquinoxalin-6-yl)amino)nicotinamide], 10 to 50 nM; with `CCCC[C@H](CN)Nc1nc(Nc2ccc3c(cnn3CC(F)F)c2)c(C(N)=O)cc1F` [Example 006-421, (R)-6-((1-aminohexan-2-yl)amino)-2-((1-(2,2-difluoroethyl)-1H-indazol-5-yl)amino)-5-fluoronicotinamide], 50 to 100 nM. The same measure, in the same setting: under `CN1CCN(c2cncc(Nc3nc(N[C@@H]4CCCC[C@@H]4N)c(F)cc3C(N)=O)c2)CC1` (relative stereo) [Example 004-052] stands 10 to 50 nM. `Cn1c(C(=O)NCCN2CCOCC2)cc2c(Nc3nc(N[C@@H]4CCCC[C@@H]4N)c(F)cc3C(N)=O)ccnc21` [Example 029-011]: under setting [1], the half-inhibitory concentration (IC50) is 100 to 1000 nM. On the same count and under the same terms, under `NC(=O)c1cc(F)c(N[C@@H]2CCCC[C@@H]2N)nc1Nc1ccc(N2CC3(COC3)C2)nc1` [Example 006-467, 2-((6-(2-oxa-6-azaspiro[3.3]heptane-6-yl)pyridin-3-yl)amino)-6-(((1R,2S)-2-aminocyclohexyl)amino)-5-fluoronicotinamide] stands 10 to 50 nM; under `CN1CCOc2nc3ccc(Nc4nc(NC5CCCCC5N)c(F)cc4C(N)=O)cc3nc21` (centres unmarked) [Example 002-122], under 10 nM. On the same count and under the same terms, with `C[C@H](Nc1nc(Nc2ccc3ncccc3c2)c(C(N)=O)cc1F)[C@@H](C)N` [Example 006-225, 6-(((2S,3R)-3-aminobutan-2-yl)amino)-5-fluoro-2-((quinolin-6-yl)amino)nicotinamide] the figure was 10 to 50 nM; with `COc1cc(Nc2nc(N[C@@H]3CCCC[C@@H]3N)c(F)cc2C(N)=O)cc2cccnc12` (relative stereo) [Example 004-138, 6-(cis-2-aminocyclohexylamino)-5-fluoro-2-((8-methoxyquinolin-6-yl)amino)nicotinamide], under 10 nM. For `COCCOc1ncc(Nc2nc(N[C@@H]3CCCC[C@@H]3N)c(F)cc2C(N)=O)cc1Cl` [Example 006-571, 6-(((1R,2S)-2-aminocyclohexyl)amino)-2-((5-chloro-6-(2-methoxyethoxy)pyridin-3-yl)amino)-5-fluoronicotinamide], under setting [1], the 50% inhibitory concentration (IC50) lay in the range of 50 to 100 nM. Turning to `CN(C)C(=O)c1cncc(Nc2nc(N[C@@H]3CCCC[C@@H]3N)c(F)cc2C(N)=O)c1` [Example 004-015], under setting [1], the IC50 lay in the range of 100 to 1000 nM.

Turning to `CCc1nc2ccc(Nc3nc(NC4CCCCC4N)c(F)cc3C(N)=O)cc2nc1CC` (centres unmarked) [Example 002-124], the half-inhibitory concentration (IC50) under setting [1] is under 10 nM. As for `CCn1nc(F)c2ccc(Nc3nc(N[C@H](CC4CC4)[C@H](C)N)c(F)cc3C(N)=O)cc21` [Example 006-441, 6-(((2R,3S)-3-amino-1-cyclopropylbutan-2-yl)amino)-2-((1-ethyl-3-fluoro-1H-indazol-6-yl)amino)-5-fluoronicotinamide], the 50% inhibitory concentration (IC50) under setting [1] lay in the range of 10 to 50 nM. The same measure, in the same setting: under `NC(=O)c1cc(F)c(N[C@H](Cc2ccccc2)C(N)=O)nc1Nc1ccnc2[nH]ccc12` [Example 004-063] stands under 10 nM; under `COc1ccc2ccc(Nc3nc(NC4CCCCC4N)c(F)cc3C(N)=O)cc2n1` (centres unmarked) [Example 002-088], under 10 nM. Turning to `NC(=O)c1cc(F)c(N[C@@H]2CCCC[C@@H]2N)nc1Nc1cncc(-c2cccc(F)c2F)c1` (relative stereo) [Example 004-204, 6-(cis-2-aminocyclohexylamino)-2-((5-(2,3-difluorophenyl)pyridin-3-yl)amino)-5-fluoronicotinamide], the IC50 under setting [1] is under 10 nM.

With `Cc1nccn1-c1ccc(Nc2nc(N[C@@H]3CCCC[C@@H]3N)c(F)cc2C(N)=O)cn1` [Example 006-536, 6-(((1R,2S)-2-aminocyclohexyl)amino)-5-fluoro-2-((6-(2-methyl-1H-imidazol-1-yl)pyridin-3-yl)amino)nicotinamide], the IC50 under setting [1] lay in the range of 100 to 1000 nM.

Take `NC(=O)c1cc(F)c(NC(Cc2ccccc2)C(N)=O)nc1Nc1ccc2ncsc2c1` (centres unmarked) [Example 012-006]: the half-inhibitory concentration (IC50) under setting [1] lay in the range of 10 to 50 nM. Regarding `NC(=O)c1cc(F)c(N[C@@H]2CCCC[C@@H]2N)nc1Nc1ccc2nc(-n3nccn3)ccc2c1` (relative stereo) [Example 004-202, 2-((2-(2H-1,2,3-triazol-2-yl)quinolin-6-yl)amino)-6-(cis-2-aminocyclohexylamino)-5-fluoronicotinamide], the half-inhibitory concentration (IC50) under setting [1] was under 10 nM. Consider `CCc1nn(C)c2ccc(Nc3nc(N[C@H](CC(C)C)[C@H](C)N)c(F)cc3C(N)=O)cc12` [Example 006-538, 6-(((2S,3R)-2-amino-5-methylhexan-3-yl)amino)-2-((3-ethyl-1-methyl-1H-indazol-5-yl)amino)-5-fluoronicotinamide], for which the IC50 under setting [1] was under 10 nM. On to `NC(=O)c1cc(F)c(N[C@@H]2CCCC[C@@H]2N)nc1Nc1cnc(N2CCOCC2)c2[nH]ccc12` [Example 004-234, 6-(((1R,2S)-2-aminocyclohexyl)amino)-5-fluoro-2-((7-morpholino-1H-pyrrolo[2,3-c]pyridin-4-yl)amino)nicotinamide], for which the half-maximal inhibitory concentration (IC50) under setting [1] lay within 10 to 50 nM. Take `CC(=O)Nc1cccc(Nc2nc(NCCN)c(F)cc2C(N)=O)c1` [Example 6-24, 2-((3-acetylaminophenyl)amino)-6-((2-aminoethyl)amino)-5-fluoronicotinamide]: the IC50 (read-out: Syk-inhibitory activity (IC50)) was at most 1000 nM. As to `CC(C)(N)CNc1nc(Nc2ccc3ncccc3c2)c(C(N)=O)cc1F` [Example 014-011, 6-((2-amino-2-methylpropyl)amino)-5-fluoro-2-((quinolin-6-yl)amino)nicotinamide], the IC50 under setting [1] fell in the range of 10 to 50 nM.
